Calls of active or inactive are those of the source. No cut-off for these calls is given here.
How the values were obtained:
[1] = biological target: Tyrosine-protein kinase CSK (Homo sapiens) (UniProt P41240); assay: Inhibition of full length human N-terminal GST tagged CSK (1 to 450 end residues) expressed in baculovirus expression system using Srctide as substrate at 10 uM by mobility shift assay relative to control
[2] = biological target: Epidermal growth factor receptor (Homo sapiens) (UniProt P00533); assay: Inhibition of human cytoplasmic domain N-terminal GST tagged EGFR (669 to 1210 end residues) expressed in baculovirus expression system using Srctide as substrate at 10 uM by mobility shift assay relative to control
[3] = biological target: Tyrosine-protein kinase ITK/TSK (Homo sapiens) (UniProt Q08881); assay: Inhibition of human cytoplasmic domain N-terminal GST tagged ITK (2 to 620 end residues) expressed in baculovirus expression system using Srctide as substrate at 10 uM by mobility shift assay relative to control
[4] = biological target: Hepatocyte growth factor receptor (Homo sapiens) (UniProt P08581); assay: Inhibition of human cytoplasmic domain N-terminal GST tagged MET (956 to 1390 end residues) expressed in baculovirus expression system using Srctide as substrate at 10 uM by mobility shift assay relative to control
[5] = biological target: Platelet-derived growth factor receptor alpha (Homo sapiens) (UniProt P16234); assay: Inhibition of human cytoplasmic domain N-terminal GST tagged PDGFR alpha (550 to 1089 residues) expressed in baculovirus expression system using CSKtide as substrate at 10 uM by mobility shift assay relative to control
[6] = biological target: Tyrosine-protein kinase receptor TYRO3 (Homo sapiens) (UniProt Q06418); assay: Inhibition of human cytoplasmic domain N-terminal GST tagged TYRO3 (453 to 890 end residues) expressed in baculovirus expression system using CSKtide as substrate at 10 uM by mobility shift assay relative to control
[7] = biological target: Death-associated protein kinase 1 (Homo sapiens) (UniProt P53355); assay: Inhibition of human catalytic domain N-terminal GST tagged DAPK1 (1 to 289 residues) expressed in baculovirus expression system using DAPK1tide as substrate at 10 uM by mobility shift assay relative to control
[8] = biological target: Mitogen-activated protein kinase 1 (Homo sapiens) (UniProt P28482); assay: Inhibition of full length human N-terminal GST tagged Erk2 (1 to 360 end residues) expressed in Escherichia coli expression system using modified Erktide as substrate at 10 uM by mobility shift assay relative to control
[9] = biological target: Inhibitor of nuclear factor kappa-B kinase subunit beta (Homo sapiens) (UniProt O14920); assay: Inhibition of truncated human N-terminal his-tagged IKK beta (1 to 662 residues) expressed in baculovirus expression system using modified IkappaB-alpha derived peptide as substrate at 10 uM by mobility shift assay relative to control
[10] = biological target: Serine/threonine-protein kinase 4 (Homo sapiens) (UniProt Q13043); assay: Inhibition of full length human N-terminal GST tagged MST1 (1 to 487 end residues) expressed in baculovirus expression system using IRS1 as substrate at 10 uM by mobility shift assay relative to control
[11] = biological target: Testis-specific serine/threonine-protein kinase 1 (Homo sapiens) (UniProt Q9BXA7); assay: Inhibition of full length human N-terminal GST tagged TSSK1 (1 to 367 end residues) expressed in baculovirus expression system using GS as peptide at 10 uM by mobility shift assay relative to control
[12] = biological target: 5-hydroxytryptamine receptor 2B (Homo sapiens) (UniProt P41595); assay: Inhibition of 5-HT2B receptor (unknown origin) at 10 uM by radioligand binding assay relative to control
[13] = biological target: Serotonin 3 (5-HT3) receptor (Homo sapiens) (UniProt P46098+A5X5Y0+O95264+Q70Z44+Q8WXA8); assay: Inhibition of 5-HT3 receptor (unknown origin) at 10 uM by radioligand binding assay relative to control; format: protein-complex assay
[14] = biological target: 5-hydroxytryptamine receptor 5A (Homo sapiens) (UniProt P47898); assay: Inhibition of 5-HT5A receptor (unknown origin) at 10 uM by radioligand binding assay relative to control
[15] = biological target: 5-hydroxytryptamine receptor 6 (Homo sapiens) (UniProt P50406); assay: Inhibition of 5-HT6 receptor (unknown origin) at 10 uM by radioligand binding assay relative to control
[16] = biological target: Alpha-1B adrenergic receptor (Homo sapiens) (UniProt P35368); assay: Inhibition of Alpha1B receptor (unknown origin) at 10 uM by radioligand binding assay relative to control
[17] = biological target: Alpha-2A adrenergic receptor (Homo sapiens) (UniProt P08913); assay: Inhibition of Alpha2A receptor (unknown origin) at 10 uM by radioligand binding assay relative to control
[18] = organism: Homo sapiens; assay: Inhibition of BZP (unknown origin) at 10 uM by radioligand binding assay relative to control
[19] = biological target: Histamine H1 receptor (Homo sapiens) (UniProt P35367); assay: Inhibition of H1 receptor (unknown origin) at 10 uM by radioligand binding assay relative to control
[20] = biological target: Sigma non-opioid intracellular receptor 1 (Homo sapiens) (UniProt Q99720); assay: Inhibition of Sigma1 receptor (unknown origin) at 10 uM by radioligand binding assay relative to control
[21] = biological target: Sigma intracellular receptor 2 (Homo sapiens, UniProt Q5BJF2); assay: Binding affinity to sigma 2 receptor (unknown origin) assessed as inhibition constant
[22] = biological target: Histone-lysine N-methyltransferase SUV39H2 (Homo sapiens, UniProt Q9H5I1); assay: Inhibition of SUV39H2 (unknown origin) using [3H-SAM] as substrate incubated for 1 hr by scintillation proximity assay
[23] = biological target: N-lysine methyltransferase KMT5A (Homo sapiens, UniProt Q9NQR1); assay: Inhibition of SETD8 (unknown origin) using [3H-SAM] as substrate incubated for 1 hr by scintillation proximity assay
[24] = biological target: Histone-lysine N-methyltransferase KMT5B (Homo sapiens, UniProt Q4FZB7); assay: Inhibition of SUV420H1 (unknown origin) using [3H-SAM] as substrate incubated for 1 hr by scintillation proximity assay
[25] = biological target: Histone-lysine N-methyltransferase KMT5C (Homo sapiens, UniProt Q86Y97); assay: Inhibition of SUV420H2 (unknown origin) using [3H-SAM] as substrate incubated for 1 hr by scintillation proximity assay
[26] = biological target: Histone-lysine N-methyltransferase EHMT1 (Homo sapiens, UniProt Q9H9B1); assay: Inhibition of EHMT1 (unknown origin) using [3H-SAM] as substrate incubated for 1 hr by scintillation proximity assay
[27] = test system: MCF7; assay: Effect on EZH2 level in human MCF7 cells at 5 uM incubated for 3 days by immunofluorescence staining based analysis; format: functional, cell-based; conditions: time 3.0 day
[28] = test system: DB; assay: Antiproliferative activity against human DB cells assessed as reduction in cell viability at 5000 nM by cell proliferation assay relative to control; format: functional
[29] = test system: DB; assay: Antiproliferative activity against human DB cells assessed as reduction in cell viability at 100 to 5000 nM measured after 3 days by cell proliferation assay; format: functional, cell-based; conditions: dose 100-5000 nM, time 3.0 day
[30] = test system: DB; assay: Downregulation of H3K27me3 level in human DB cells at 3000 nM measured after 3 days; format: functional, cell-based; conditions: time 3.0 day
[31] = biological target: Sodium-dependent noradrenaline transporter (Homo sapiens, UniProt P23975)
Description: Binding affinity to NET (unknown origin) assessed as inhibition constant

Sigma non-opioid intracellular receptor 1 (Homo sapiens), sequence (Q99720 whole entry): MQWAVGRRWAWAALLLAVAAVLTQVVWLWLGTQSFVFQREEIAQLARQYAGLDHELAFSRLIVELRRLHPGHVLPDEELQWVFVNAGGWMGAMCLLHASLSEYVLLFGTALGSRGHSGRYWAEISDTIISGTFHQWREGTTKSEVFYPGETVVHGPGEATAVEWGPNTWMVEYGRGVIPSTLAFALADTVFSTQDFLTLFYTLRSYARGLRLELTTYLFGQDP
5-hydroxytryptamine receptor 6 (Homo sapiens), sequence (P50406 whole entry): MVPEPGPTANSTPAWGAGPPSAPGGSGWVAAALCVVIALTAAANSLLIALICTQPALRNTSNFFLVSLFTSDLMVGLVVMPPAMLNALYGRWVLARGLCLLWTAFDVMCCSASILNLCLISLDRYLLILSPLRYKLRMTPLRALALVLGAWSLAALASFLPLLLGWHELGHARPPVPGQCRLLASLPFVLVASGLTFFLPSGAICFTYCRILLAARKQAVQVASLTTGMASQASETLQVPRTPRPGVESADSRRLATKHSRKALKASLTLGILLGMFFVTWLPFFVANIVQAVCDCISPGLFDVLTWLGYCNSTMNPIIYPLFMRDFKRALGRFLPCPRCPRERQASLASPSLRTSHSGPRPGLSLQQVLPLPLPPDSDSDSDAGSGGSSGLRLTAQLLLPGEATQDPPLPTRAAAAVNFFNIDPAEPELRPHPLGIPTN
Histone-lysine N-methyltransferase KMT5C, sequence (Q86Y97 whole entry): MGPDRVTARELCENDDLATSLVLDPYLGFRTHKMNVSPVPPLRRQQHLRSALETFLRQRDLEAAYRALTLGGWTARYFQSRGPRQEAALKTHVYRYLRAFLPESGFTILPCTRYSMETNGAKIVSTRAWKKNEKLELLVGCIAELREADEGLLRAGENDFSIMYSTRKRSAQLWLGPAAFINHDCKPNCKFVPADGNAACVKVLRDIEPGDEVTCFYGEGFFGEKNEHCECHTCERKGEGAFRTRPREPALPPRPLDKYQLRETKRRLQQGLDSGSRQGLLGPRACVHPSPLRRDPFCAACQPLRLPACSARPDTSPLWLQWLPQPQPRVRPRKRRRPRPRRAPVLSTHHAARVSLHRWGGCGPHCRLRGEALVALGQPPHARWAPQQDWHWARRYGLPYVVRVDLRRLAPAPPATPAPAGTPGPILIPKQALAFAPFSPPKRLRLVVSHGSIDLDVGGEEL
Histone-lysine N-methyltransferase SUV39H2, sequence (Q9H5I1 whole entry): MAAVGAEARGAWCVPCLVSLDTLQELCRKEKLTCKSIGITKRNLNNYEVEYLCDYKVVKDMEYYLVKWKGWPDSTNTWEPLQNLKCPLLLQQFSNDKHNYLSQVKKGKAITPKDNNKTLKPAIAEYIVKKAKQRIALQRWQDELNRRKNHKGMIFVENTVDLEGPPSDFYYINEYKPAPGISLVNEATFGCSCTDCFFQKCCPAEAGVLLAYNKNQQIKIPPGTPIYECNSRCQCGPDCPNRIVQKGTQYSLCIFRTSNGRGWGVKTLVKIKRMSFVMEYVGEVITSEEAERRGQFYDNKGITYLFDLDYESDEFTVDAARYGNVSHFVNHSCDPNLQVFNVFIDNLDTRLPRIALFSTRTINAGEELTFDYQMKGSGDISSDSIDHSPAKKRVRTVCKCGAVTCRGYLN
Sigma intracellular receptor 2, sequence (Q5BJF2 whole entry): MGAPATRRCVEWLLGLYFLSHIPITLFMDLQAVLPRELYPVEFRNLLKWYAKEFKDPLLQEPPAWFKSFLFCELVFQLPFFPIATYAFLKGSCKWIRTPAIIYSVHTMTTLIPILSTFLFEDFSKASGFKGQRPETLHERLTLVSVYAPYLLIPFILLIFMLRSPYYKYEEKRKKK
Mitogen-activated protein kinase 1 (Homo sapiens), sequence (P28482 whole entry, the tested form may be a part): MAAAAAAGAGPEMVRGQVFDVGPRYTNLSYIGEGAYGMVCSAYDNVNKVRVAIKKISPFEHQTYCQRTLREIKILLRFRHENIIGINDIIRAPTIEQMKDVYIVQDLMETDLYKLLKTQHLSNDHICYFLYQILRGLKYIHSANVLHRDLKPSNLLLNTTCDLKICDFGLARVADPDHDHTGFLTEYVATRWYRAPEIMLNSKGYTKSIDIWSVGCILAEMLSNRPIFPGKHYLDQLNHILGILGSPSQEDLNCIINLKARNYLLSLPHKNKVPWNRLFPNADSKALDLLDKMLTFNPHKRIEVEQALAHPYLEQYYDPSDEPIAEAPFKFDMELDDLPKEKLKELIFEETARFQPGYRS
Testis-specific serine/threonine-protein kinase 1 (Homo sapiens), sequence (Q9BXA7 whole entry): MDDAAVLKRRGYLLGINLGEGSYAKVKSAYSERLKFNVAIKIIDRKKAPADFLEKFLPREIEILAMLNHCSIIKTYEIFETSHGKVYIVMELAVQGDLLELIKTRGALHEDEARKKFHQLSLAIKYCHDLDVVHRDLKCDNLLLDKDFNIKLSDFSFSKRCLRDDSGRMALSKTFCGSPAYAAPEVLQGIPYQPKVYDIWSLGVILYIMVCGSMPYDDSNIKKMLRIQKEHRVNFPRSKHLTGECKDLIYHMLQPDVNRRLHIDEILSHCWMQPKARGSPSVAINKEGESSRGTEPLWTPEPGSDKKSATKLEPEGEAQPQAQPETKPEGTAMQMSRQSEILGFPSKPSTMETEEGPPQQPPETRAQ
Alpha-1B adrenergic receptor (Homo sapiens), sequence (P35368 whole entry): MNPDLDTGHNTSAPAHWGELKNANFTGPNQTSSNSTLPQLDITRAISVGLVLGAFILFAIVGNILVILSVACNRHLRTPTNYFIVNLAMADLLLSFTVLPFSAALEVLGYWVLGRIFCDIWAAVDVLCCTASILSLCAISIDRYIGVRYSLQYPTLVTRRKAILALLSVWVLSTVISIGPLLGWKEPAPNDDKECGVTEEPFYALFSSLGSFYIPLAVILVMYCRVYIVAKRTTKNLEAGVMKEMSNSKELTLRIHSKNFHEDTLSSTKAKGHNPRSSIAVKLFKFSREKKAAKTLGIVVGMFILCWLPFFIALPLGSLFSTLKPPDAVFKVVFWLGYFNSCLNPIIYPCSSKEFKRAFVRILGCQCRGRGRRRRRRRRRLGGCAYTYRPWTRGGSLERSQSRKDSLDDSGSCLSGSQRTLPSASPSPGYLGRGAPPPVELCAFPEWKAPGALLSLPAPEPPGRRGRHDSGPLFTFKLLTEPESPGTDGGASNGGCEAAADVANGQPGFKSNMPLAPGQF
Hepatocyte growth factor receptor (Homo sapiens), sequence (P08581 whole entry, the tested form may be a part): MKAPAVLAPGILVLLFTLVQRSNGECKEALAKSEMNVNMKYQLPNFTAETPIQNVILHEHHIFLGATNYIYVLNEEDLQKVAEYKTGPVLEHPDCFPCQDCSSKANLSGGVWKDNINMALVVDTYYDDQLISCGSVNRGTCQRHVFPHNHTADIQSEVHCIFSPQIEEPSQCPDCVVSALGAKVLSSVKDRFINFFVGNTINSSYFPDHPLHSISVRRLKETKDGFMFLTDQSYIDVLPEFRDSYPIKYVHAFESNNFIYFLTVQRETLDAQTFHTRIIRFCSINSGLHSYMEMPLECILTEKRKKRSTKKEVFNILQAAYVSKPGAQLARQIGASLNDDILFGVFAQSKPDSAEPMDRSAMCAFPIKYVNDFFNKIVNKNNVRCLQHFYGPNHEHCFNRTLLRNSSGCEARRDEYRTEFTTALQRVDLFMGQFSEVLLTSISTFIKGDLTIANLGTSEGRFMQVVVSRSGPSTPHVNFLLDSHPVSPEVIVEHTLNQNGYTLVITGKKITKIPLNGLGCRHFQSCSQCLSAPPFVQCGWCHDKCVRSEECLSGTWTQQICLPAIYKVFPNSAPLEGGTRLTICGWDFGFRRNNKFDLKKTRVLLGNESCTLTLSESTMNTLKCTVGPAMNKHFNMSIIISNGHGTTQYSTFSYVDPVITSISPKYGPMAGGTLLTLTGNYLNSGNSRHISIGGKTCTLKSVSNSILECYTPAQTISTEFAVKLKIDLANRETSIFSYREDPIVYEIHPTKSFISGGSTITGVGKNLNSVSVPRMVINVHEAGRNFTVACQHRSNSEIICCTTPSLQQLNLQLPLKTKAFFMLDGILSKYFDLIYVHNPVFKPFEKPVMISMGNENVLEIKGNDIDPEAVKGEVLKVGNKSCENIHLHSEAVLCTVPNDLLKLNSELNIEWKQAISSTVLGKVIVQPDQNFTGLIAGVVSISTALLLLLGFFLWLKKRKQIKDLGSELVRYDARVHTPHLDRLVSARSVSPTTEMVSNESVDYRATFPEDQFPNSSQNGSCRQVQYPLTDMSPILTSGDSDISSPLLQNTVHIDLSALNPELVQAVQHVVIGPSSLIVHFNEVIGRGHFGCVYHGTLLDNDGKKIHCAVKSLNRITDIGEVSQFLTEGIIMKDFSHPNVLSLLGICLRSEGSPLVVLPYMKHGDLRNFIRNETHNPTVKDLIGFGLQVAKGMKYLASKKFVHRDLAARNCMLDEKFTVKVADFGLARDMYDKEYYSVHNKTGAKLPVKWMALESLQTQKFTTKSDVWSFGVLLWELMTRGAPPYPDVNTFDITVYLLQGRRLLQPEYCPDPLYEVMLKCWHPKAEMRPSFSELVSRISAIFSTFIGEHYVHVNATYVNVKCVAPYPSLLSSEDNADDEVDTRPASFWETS
5-hydroxytryptamine receptor 5A (Homo sapiens), sequence (P47898 whole entry): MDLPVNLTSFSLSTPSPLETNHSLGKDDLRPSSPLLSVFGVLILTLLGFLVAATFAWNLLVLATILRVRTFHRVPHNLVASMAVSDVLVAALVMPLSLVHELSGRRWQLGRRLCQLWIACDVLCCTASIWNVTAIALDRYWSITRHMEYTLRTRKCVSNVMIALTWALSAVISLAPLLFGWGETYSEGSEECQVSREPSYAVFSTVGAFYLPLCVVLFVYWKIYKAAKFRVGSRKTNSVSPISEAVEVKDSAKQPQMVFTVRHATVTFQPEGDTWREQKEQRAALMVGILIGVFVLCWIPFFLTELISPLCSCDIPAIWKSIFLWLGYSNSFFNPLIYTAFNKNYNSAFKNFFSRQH

## CCCc1cc(C)[nH]c(=O)c1CNC(=O)c1cc(-c2ccc(N3CCN(C(C)C)CC3)nc2)cc2c1cnn2C(C)C
[1]
  inhibition: -4%
[2]
  inhibition: -3%
[3]
  inhibition: -2%
[4]
  inhibition: -3%
[5]
  inhibition: -5%
[6]
  inhibition: -1%
[7]
  inhibition: -4%
[8]
  inhibition: 3%
[9]
  inhibition: -3%
[10]
  inhibition: -5%
[11]
  inhibition: 5%
[12]
  inhibition: -9%
[13]
  inhibition: 12%
[14]
  inhibition: 10%
[15]
  inhibition: 11%
[16]
  inhibition: 6%
[17]
  inhibition: 14%
[18]
  inhibition: -6%
[19]
  inhibition: 16%
[20]
  inhibition: 57%
[21]
  Ki: 0.065 µM
[22]
  IC50: > 100 µM
[23]
  IC50: > 100 µM
[24]
  IC50: > 100 µM
[25]
  IC50: > 100 µM
[26]
  IC50: > 100 µM
[27]
  Activity: inactive
[28]
  Activity: 100%
[29]
  Activity: inactive
[30]
  Activity: Active
[31]
  Ki: 1.5 µM
